Results on 10 compounds are retold here after patent publication US11666578B2, “Small molecule inhibitors of CDK12/CDK13” (The Scripps Research Institute, priority 2018, dated 2023).

In one series the target is T1, CDK12 (Homo sapiens, UniProt Q9NYV4).
T1 construct: purchased DiscoverX
In words: Competition binding assay, DiscoverX (Kinomescan), CDK12. From the text: (§1) [drawing 21] wherein the substituents W, X, Y, Z, and R^1, are as specified in the respective Table columns.
In addition to screening a selected set of new inhibitors in CDK12/13 enzyme assays using Kinomescan™ technology, we tested all new compounds in a mechanism of action assay, which detects inhibition of phosphorylation of serine 2 (pSer2) on the C-terminal repeat domain (CTD) of RNA pol II.

Series [1] can be described thus: Microsome stability, mouse liver microsomes. In kind it is in vitro ADME. Particulars: read-out: Microsome stability t1/2.
A further series concerns the target CK1δ (Homo sapiens, UniProt P48730). The experiment in a line: In-house kinase inhibition assay, CK1δ. It is filed as biochemical.
From the text: as §1

The nature of series [2]: Solubility in pH 7.4 phosphate buffered saline. Conditions: aqueous buffer. It is filed as physicochemical.
The nature of another series: Mouse PK. In kind it is in vivo. Particulars: for AUC: read-out: AUCINF_dos (converted).
The target of another series is CYP 3A4 (Homo sapiens, UniProt P08684). The experiment in a line: Cytochrome P450 inhibition assay, 3A4. It is filed as in vitro ADME.
The target in the next series is CYP 2D6 (Homo sapiens, UniProt P10635). The experiment in a line: Cytochrome P450 inhibition assay, 2D6. It is filed as in vitro ADME.
Another series has as its target CYP 2C9 (Homo sapiens, UniProt P11712). In words: Cytochrome P450 inhibition assay, 2C9. It is filed as in vitro ADME.
The next series deals with CK1ε (Homo sapiens, UniProt P49674). The experiment in a line: In-house kinase inhibition assay, CK1ε. It is filed as biochemical.
From the text: as §1

Series [3] can be described thus: Microsome stability, human liver microsomes. In kind it is in vitro ADME. Particulars: read-out: Microsome stability t1/2 (H). (Microsomes from liver hold many membrane-bound enzymes, among them those of drug oxidation.)
Series [4] in a line: Microsome stability, rat liver microsomes. It is filed as in vitro ADME. Particulars: read-out: Microsome stability t1/2 (R).
The next series deals with T2, CDK13 (Homo sapiens, UniProt Q14004).
T2 construct: purchased DiscoverX
The experiment in a line: Competition binding assay, DiscoverX (Kinomescan), CDK13.
From the text: as §1
In addition to screening a selected set of new inhibitors in CDK12/13 enzyme assays using Kinomescan™ technology, we tested all new compounds in a mechanism of action assay, which detects inhibition of phosphorylation of serine 2 (pSer2) on the C-terminal repeat domain (CTD) of RNA pol II. […] In order to confirm that CDK12/13 inhibition is driving cell death, we also plotted the growth inhibition pIC50's with pSer2 inhibition data. There was a good correlation when using the cell proliferation data from both U87 and MDA-MB-231 cell lines (FIGS. 5 and 6).

Another series addresses T3, CYP 1A2 (Homo sapiens, UniProt P05177).
T3 sequence (P05177 1-516): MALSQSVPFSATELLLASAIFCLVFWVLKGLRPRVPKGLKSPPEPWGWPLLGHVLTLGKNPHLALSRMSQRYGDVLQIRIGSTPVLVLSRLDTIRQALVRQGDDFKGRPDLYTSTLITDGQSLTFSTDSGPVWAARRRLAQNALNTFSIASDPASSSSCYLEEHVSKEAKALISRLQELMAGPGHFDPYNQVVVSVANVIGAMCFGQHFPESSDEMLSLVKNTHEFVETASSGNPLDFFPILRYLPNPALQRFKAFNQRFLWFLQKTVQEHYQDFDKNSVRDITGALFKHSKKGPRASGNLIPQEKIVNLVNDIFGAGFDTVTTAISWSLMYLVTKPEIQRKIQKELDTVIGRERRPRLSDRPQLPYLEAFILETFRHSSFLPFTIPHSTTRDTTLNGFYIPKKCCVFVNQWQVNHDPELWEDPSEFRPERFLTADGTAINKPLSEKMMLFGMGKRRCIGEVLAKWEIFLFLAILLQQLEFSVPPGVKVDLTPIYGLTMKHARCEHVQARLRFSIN
The experiment in a line: Cytochrome P450 inhibition assay, 1A2. In kind it is in vitro ADME.

The test system of another series is MDA-MB-231 cell line. In words: Cell proliferation / growth inhibition, MDA-MB-231, 72 h (Cell-Titer Glo). It is filed as cell-based. Conditions: Homo sapiens.
Another series has as its system U87 cell line. The experiment in a line: Cell proliferation / growth inhibition, U87, 72 h (Cell-Titer Glo). Conditions: Homo sapiens, U-87 MG. In kind it is cell-based.
In a further series the test system is other CDKs (CDK panel). The experiment in a line: Selectivity in CDK panel (% of inhibition at 10 μM). It is filed as biochemical. Particulars: FIG. 2. Here is the method: FIGS. 2a and 2b. Selectivity of selected CDK12/13 inhibitors against other CDKs (% of inhibition at 10 μM)
Where [5] appears, read: read-out: CK1δ IC50, read-out: CK1σ IC50.

The term pKd denotes the Kd on a negative log10 scale, so that one unit is a factor of ten. A high value points to a low Kd. In general, pIC50 refers to the negative decadic logarithm of the IC50, by convention in mol/L. The term solubility denotes the concentration that dissolves in the medium under given conditions. Low values mean a poorly soluble substance, high ones a readily soluble substance. What is called AUC(0-t) is exposure summed from dosing to a finite time, without extrapolation to infinity. Higher therefore signals more exposure. Broadly, the Cmax is the highest concentration seen after dosing. A word on the Tmax: it is the time from dosing to the highest level. By GI50 is commonly meant the concentration at which growth is held to half of that of the control. Lower therefore signals more potent growth inhibition.

pIC50, pKd: −log10 of the molar value. Converted amounts (≈) assume the structure as drawn. “And” between values parts separate entries of the source, which are not always exact repeats. Identical values can stand only once. Like-named read-outs stand apart in the source and are kept apart here.

CK1δ, sequence (P48730 whole entry): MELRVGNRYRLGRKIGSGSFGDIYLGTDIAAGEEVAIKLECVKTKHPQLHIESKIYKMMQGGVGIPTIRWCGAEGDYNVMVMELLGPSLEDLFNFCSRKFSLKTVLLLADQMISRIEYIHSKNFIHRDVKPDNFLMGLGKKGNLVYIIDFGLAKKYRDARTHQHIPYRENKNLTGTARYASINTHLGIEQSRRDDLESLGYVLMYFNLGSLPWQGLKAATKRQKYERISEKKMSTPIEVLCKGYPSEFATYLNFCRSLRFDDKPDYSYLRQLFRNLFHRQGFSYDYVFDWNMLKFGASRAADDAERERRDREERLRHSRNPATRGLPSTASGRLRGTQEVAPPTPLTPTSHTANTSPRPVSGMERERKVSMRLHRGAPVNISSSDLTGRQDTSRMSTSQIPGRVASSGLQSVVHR
CYP 3A4, sequence (P08684 whole entry): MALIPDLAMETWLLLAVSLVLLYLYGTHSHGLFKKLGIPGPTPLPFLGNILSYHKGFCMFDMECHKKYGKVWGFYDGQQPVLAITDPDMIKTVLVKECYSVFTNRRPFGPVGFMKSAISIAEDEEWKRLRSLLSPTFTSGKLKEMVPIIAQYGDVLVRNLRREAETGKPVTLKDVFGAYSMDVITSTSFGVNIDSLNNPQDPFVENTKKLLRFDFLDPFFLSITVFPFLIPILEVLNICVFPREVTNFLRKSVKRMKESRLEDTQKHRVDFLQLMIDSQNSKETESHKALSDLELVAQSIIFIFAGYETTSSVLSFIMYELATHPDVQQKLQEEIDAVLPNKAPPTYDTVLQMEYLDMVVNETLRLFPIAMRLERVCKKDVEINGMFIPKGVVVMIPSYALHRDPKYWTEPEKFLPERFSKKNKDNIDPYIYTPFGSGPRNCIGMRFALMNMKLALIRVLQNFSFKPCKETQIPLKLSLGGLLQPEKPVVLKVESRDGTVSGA
CYP 2D6, sequence (P10635 whole entry): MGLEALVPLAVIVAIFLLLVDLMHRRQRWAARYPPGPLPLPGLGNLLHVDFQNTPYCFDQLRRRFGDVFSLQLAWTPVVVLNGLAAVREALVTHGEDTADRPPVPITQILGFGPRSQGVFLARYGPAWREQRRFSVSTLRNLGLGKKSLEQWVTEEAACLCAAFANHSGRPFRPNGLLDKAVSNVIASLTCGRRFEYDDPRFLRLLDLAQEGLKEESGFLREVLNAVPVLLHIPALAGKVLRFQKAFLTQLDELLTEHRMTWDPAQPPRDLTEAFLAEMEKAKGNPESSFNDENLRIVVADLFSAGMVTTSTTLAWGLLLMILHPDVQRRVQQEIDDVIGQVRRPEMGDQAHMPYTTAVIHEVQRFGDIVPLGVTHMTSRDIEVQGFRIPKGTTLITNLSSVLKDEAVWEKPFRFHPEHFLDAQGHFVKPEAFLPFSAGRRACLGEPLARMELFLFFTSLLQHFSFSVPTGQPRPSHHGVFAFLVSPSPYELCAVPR
CK1ε, sequence (P49674 whole entry): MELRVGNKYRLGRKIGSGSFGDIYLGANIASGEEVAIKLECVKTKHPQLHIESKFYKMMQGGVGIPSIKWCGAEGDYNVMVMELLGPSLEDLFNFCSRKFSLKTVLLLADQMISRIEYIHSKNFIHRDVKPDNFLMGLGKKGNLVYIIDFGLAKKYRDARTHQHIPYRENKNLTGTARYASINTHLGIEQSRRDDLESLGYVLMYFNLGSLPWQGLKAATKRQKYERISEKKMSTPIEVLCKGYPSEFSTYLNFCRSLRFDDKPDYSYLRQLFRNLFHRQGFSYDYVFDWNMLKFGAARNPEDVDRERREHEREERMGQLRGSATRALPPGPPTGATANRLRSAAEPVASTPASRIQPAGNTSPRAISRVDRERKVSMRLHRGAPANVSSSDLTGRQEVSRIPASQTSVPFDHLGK
CYP 2C9, sequence (P11712 whole entry): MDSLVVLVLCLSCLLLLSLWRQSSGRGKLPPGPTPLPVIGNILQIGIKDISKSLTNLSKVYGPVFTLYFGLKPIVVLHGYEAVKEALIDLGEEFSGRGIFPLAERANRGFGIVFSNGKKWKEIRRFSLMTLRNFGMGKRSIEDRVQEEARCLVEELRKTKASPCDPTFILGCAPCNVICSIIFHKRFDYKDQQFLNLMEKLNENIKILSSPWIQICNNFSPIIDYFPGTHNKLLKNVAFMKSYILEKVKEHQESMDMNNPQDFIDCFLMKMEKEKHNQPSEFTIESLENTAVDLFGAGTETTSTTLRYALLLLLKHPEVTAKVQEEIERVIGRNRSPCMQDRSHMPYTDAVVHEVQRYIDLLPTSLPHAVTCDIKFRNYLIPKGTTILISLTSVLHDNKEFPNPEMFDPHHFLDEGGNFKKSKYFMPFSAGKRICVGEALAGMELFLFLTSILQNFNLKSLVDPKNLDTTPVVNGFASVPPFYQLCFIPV
T1 sequence (Q9NYV4 whole entry): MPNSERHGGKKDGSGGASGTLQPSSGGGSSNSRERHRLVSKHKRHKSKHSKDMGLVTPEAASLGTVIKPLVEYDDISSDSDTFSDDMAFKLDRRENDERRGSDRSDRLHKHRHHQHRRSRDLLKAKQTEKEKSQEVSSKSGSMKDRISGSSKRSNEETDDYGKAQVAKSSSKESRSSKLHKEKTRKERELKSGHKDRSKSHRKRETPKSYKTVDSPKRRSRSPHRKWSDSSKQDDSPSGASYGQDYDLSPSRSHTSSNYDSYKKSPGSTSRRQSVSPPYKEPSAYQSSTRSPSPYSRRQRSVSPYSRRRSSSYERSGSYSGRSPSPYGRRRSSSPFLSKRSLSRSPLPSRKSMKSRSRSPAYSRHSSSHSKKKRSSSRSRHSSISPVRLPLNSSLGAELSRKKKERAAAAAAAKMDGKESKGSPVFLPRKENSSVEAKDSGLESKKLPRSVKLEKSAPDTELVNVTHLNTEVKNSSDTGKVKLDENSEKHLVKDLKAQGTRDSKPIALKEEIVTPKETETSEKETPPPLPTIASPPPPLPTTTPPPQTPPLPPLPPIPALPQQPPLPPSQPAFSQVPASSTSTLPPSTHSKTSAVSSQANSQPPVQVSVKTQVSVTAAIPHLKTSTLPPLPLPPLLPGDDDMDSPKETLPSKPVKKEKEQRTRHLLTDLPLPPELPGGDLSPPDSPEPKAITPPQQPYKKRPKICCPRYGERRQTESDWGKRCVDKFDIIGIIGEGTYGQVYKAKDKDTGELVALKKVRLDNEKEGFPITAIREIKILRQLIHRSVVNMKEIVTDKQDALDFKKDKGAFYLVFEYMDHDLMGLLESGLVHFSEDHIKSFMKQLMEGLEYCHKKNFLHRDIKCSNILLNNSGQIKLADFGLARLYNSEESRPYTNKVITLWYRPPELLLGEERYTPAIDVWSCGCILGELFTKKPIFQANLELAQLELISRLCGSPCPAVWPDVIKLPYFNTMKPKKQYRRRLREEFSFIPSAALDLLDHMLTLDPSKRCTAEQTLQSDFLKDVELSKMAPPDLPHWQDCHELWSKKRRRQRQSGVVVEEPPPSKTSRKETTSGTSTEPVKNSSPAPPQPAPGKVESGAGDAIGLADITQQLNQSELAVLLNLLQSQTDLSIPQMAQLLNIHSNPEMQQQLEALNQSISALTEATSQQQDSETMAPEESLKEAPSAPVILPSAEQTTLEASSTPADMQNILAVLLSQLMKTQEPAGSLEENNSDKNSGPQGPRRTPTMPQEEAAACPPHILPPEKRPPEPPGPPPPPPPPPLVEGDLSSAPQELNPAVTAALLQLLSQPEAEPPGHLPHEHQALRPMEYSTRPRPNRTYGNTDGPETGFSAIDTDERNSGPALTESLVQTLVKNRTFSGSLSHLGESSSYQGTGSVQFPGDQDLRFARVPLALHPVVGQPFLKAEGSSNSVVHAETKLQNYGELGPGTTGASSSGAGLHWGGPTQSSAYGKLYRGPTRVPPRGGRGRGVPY

Take `Cn1cc(-n2cnc3c(NCc4nc5c(F)c(F)ccc5[nH]4)nc(N4CCOCC4)nc32)cn1` [Compound 1, N-((4,5-difluoro-1H-benzo[d]imidazol-2-yl)methyl)-9-(1-methyl-1H-pyrazol-4-yl) morpholino-9H-purin-6-amine]: the negative-log Kd (pKd) was 7.85 on CDK12 and 8.30 at CDK13. In addition, the half-life was 9 min in [1]; 179 min in “Mouse PK” (in vivo, IP 30 mg/kg, 10/10/80 DMSO/Tween-80/water); 22 min in [3]; 20 min in [4]. Besides, the values for the pIC50 on CK1δ (setting [5]) and at CK1ε were 5.07 and 5.34, respectively. Also, the concentration in solution in series [2] (solubility) was 6.1 µM (≈ 2.85 µg/mL). In addition, the “AUC % Extrap” value in the series “Mouse PK” (IP 30 mg/kg) was 0.1%. The CI_obs in “Mouse PK” (IP 30 mg/kg) was determined as 13.4 mL/min/kg. In addition, the AUC(0-t) in “Mouse PK” (in vivo, IP 30 mg/kg) was 25400 ng·h/mL and 55 µM·h. Further, in “Mouse PK” (in vivo, IP 30 mg/kg), the AUC is 25500 ng·h/mL. Besides, the highest concentration (Cmax) in the series “Mouse PK” (in vivo, IP 30 mg/kg, read-out: Cmax) was 9330 ng/mL and 20 µM. The Tmax in the series “Mouse PK” (in vivo, IP 30 mg/kg, read-out: Tmax) is 60 min. Besides, the “CYP inhibition 3A4” value on CYP 3A4 worked out at 56 % inh. In addition, at CYP 2D6, the “CYP inhibition 2D6” value is reported as −3 % inh. Also, the “CYP inhibition 2C9” value on CYP 2C9 was determined as 23 % inh. Moreover, the “CYP inhibition 1A2” value at CYP 1A2 was found to be 10 % inh.

As for `Cn1cc(-n2cnc3c(NCc4nc5cc(F)c(F)cc5[nH]4)nc(N4CCOCC4)nc32)cn1` [Compound 2, N-((5,6-difluoro-1H-benzo[d]imidazol-2-yl)methyl)-9-(1-methyl-1H-pyrazol-4-yl) morpholino-9H-purin-6-amine], the half-life in [1] is 11 min; in series [3] it was 39 min; in series [4], 18 min. The negative logarithm of the IC50 (pIC50) is under 5.00 at CK1δ (setting [5]) and 5.19 at CK1ε. In series [2], this compound came in with a solubility of 0.8 µM (≈ 0.373 µg/mL). Also, at CYP 3A4, the “CYP inhibition 3A4” value amounted to 55 % inh. Also, at CYP 2D6, the “CYP inhibition 2D6” value is reported as 2 % inh. Moreover, the “CYP inhibition 2C9” value at CYP 2C9 was 23 % inh. The “CYP inhibition 1A2” value at CYP 1A2 is 5 % inh.

Take `Cc1cc(-n2cnc3c(NCc4nc5c(F)c(F)ccc5[nH]4)nc(N4CCOCC4)nc32)no1` [Compound 3, N-((4,5-difluoro-1H-benzo[d]imidazol-2-yl)methyl)-9-(5-methylisoxazol-3-yl)-2-morpholino-9H-purin-6-amine]: the pKd is 7.66 on CDK12 and 8.40 on CDK13. Also, the half-life in [1] was determined as 7 min; in series [3], 13 min; in [4], 11 min. Also, the results for the pIC50 at CK1δ (setting [5]) and at CK1ε were 5.32 and 5.90, respectively. In series [2], this compound registered a solubility of 3.6 µM (≈ 1.68 µg/mL). In addition, on CYP 3A4, the “CYP inhibition 3A4” value is on record as 55 % inh. Further, the “CYP inhibition 2D6” value at CYP 2D6 is recorded as 2 % inh. Further, the “CYP inhibition 2C9” value on CYP 2C9 was 23 % inh. On CYP 1A2, the “CYP inhibition 1A2” value worked out at 5 % inh.

For `Fc1ccc2[nH]c(CNc3nc(N4CCOCC4)nc4c3ncn4-c3cscn3)nc2c1F` [Compound 4, N-((4,5-difluoro-1H-benzo[d]imidazol-2-yl)methyl)-2-morpholino-9-(thiazol-4-yl)-9H-purin-6-amine], the half-life in [1] was found to be 6 min; in series [3], 16 min; in series [4], 9 min. Moreover, in series [2], the solubility amounted to 0.8 µM (≈ 0.376 µg/mL). The “CYP inhibition 3A4” value at CYP 3A4 is 89 % inh. Besides, the “CYP inhibition 2D6” value at CYP 2D6 amounted to 57 % inh. Moreover, at CYP 2C9, the “CYP inhibition 2C9” value is on record as 89 % inh. Besides, the GI50 with MDA-MB-231 cell line and with U87 cell line was under 2 nM throughout. In addition, on CYP 1A2, the “CYP inhibition 1A2” value turned out to be 97 % inh.

Regarding `Cn1cc(-n2cnc3c(NCc4nc5cc(Cl)c(Cl)cc5[nH]4)nc(N4CCOC[C@@H]4CO)nc32)cn1` [Compound 6, (S)-(4-(6-(((5,6-dichloro-1H-benzo[d]imidazol-2-yl)methyl)amino)-9-(1-methyl-1H-pyrazol-4-yl)-9H-purin-2-yl)morpholin-3-yl)methanol], the half-life came out at 13 min in series [1], 21 min in series [3] and 19 min in series [4]. In series [2], the concentration in solution (solubility) was 0.8 µM (≈ 0.424 µg/mL). In addition, the “CYP inhibition 3A4” value at CYP 3A4 is 77 % inh. Also, the “CYP inhibition 2D6” value on CYP 2D6 worked out at 42 % inh. The “CYP inhibition 2C9” value at CYP 2C9 stood at 69 % inh. Moreover, the “CYP inhibition 1A2” value at CYP 1A2 was 42 % inh.

Regarding `Cn1cc(-n2cnc3c(NCc4nc5cc(Cl)c(Cl)cc5[nH]4)nc(N4CCOC[C@H]4CO)nc32)cn1` [Compound 7, (R)-(4-(6-(((5,6-dichloro-1H-benzo[d]imidazol-2-yl)methyl)amino)-9-(1-methyl-1H-pyrazol-4-yl)-9H-purin-2-yl)morpholin-3-yl)methanol], the half-life was found to be 18 min in series [1], 27 min in [3] and 25 min in [4]. In addition, in series [2], the solubility stood at 0.7 µM (≈ 0.371 µg/mL). Besides, the “AUC % Extrap” value in “Mouse PK” (IP 20 mg/kg) was 1.0%. Also, the CI_obs in the series “Mouse PK” (IP 20 mg/kg) turned out to be 61.6 mL/min/kg. Moreover, the Tmax in the series “Mouse PK” (IP 20 mg/kg) stood at 60 min. The same compound gave a T1/2 in the series “Mouse PK” (IP 20 mg/kg, 10/10/80 DMSO/Tween-80/water) of 223 min. Also, in the series “Mouse PK” (in vivo, IP 20 mg/kg), the AUC was 5530 ng·h/mL. Besides, the “CYP inhibition 3A4” value on CYP 3A4 came out at 54 % inh. At CYP 2D6, the “CYP inhibition 2D6” value stood at 29 % inh. The “CYP inhibition 2C9” value on CYP 2C9 worked out at 54 % inh. On CYP 1A2, the “CYP inhibition 1A2” value is given as 39 % inh.

Turning to `Fc1ccc2[nH]c(CNc3nc(N4CCOCC4)nc4c3ncn4-c3cncs3)nc2c1F` [Compound 8, N-((4,5-difluoro-1H-benzo[d]imidazol-2-yl)methyl)-2-morpholino-9-(thiazol-5-yl)-9H-purin-6-amine], the pIC50 was 6.38 on CK1δ (setting [5]) and 6.20 at CK1ε.

As to `Fc1ccc2[nH]c(CNc3nc(N4CCOCC4)nc4c3ncn4-c3nccs3)nc2c1F` [Compound 9, N-((4,5-difluoro-1H-benzo[d]imidazol-2-yl)methyl)-2-morpholino-9-(thiazol-2-yl)-9H-purin-6-amine], the pIC50 is 6.40 on CK1δ (setting [5]) and 5.97 on CK1ε.

With `COc1cc2nc(CNc3nc(N4CCOCC4)nc4c3ncn4-c3cnn(C)c3)[nH]c2cc1Cl` [Compound 10], the pIC50 at CK1δ (read-out: CK1σ IC50) was 5.11.

For the compound `Fc1cccc(-n2cnc3c(NCc4nc5c(F)c(F)ccc5[nH]4)nc(N4CCOCC4)nc32)c1` [SR-3029], in the series on other CDKs (CDK panel), the “Selectivity in CDK panel” value is recorded as “good selectivity”.
